Where no end group is shown, it is not given here. [ ]: non-standard residue; d: D form. Nva = CCC[C@H](N)C(=O)O
Tests used:
D2.mdx mice [1] = experiment: Mitochondrial H2O2 emission in permeabilized muscle fibre bundles; type: in vivo, mouse
Procedure: D2.mdx mice were treated with ALY688 at two different dosages; high dose (HD; 15 mg/kg body weight/day) or low dose (LD; 3 mg/kg body weight/day) dissolved in saline. A separate group of mice were treated with saline alone (VEH, vehicle). Treatment was provided via subscapular subcutaneous injections from 7 days of age to 28-30 days. […] At 28-30 days of age, mice were anaesthetized with isoflurane vaporized in medical air (21% oxygen) at a 2 L/min flow rate. Due to tissue limitations in limb muscle, certain measures were performed separately in tibialis anterior and quadriceps across several phases of breeding. Following the treatment protocol, in situ quadriceps force assessments were then performed in one limb followed by removal of the quadriceps from the other limb for mitochondrial assessments, diaphragm for in vitro force assessments and finally other tissues for further processing as described below. Muscle and visceral organs weights were normalized to tibia length. Tissue collected from the first phase were utilized in force, histological, mitochondrial measures (respiration, mH2O2 and calcium retention capacity) and western analyses (diaphragm and quadriceps only). A second phase was then collected and utilized for cytokine profiling, qPCR analyses and additional westerns (TA only). Serum was collected from both phase 1 and 2 and utilized for serum CK analysis. All animals were utilized in in vivo functional assays (grip strength, cage hang time and voluntary wheel running).
The quadriceps from the non-stimulated limb and the diaphragm were collected and quickly placed in a buffer containing (in mM) 50 MES Hydrate, 7.23 K2EGTA, 2.77 CaK2EGTA, 20 imidazole, 0.5 dithiothreitol, 20 taurine, 5.77 ATP, 15 PCr, and 6.56 MgCl2·6H2O (pH 7.1). Both muscles were trimmed of connective tissue and fat and separated along the longitudinal axis into small bundles weighing approximately 1.0-2.5 mg wet weight for respiration and mH2O2 and 0.5-1.5 mg wet weight for calcium retention capacity. Bundles were permeabilized with […] saponin (Sigma Aldrich; St. Louis, MI, USA) in BIOPS on a platform rotor for 30 minutes at 4° C. The permeabilized bundles were then transferred to wash buffers to remove saponin as follows: MiRO5 for mitochondrial respiration, Buffer Z for mitochondrial H2O2 emission (mH2O2), and Buffer Y for calcium retention capacity. The composition of each buffer has been described previously. Fibres prepared for pyruvate-supported mitochondrial H2O2 emission (mH2O2) were permeabilized in the presence of 35 μM 2,4-dinitrochlorobenzene (CDNB) to deplete glutathione and enhance the detection of mH2O2. All bioenergetic assays were performed within 4 hours of washing to maintain fibre viability.
Briefly, mH2O2 was determined spectrofluorometrically (QuantaMaster 40, HORIBA Scientific, Irvine, CA, USA) utilizing Buffer Z containing 10 μM Amplex Ultra Red (Life Technologies; Carlsbad, CA, USA), 1 U/mL horseradish peroxidase, 1 mM EGTA, 40 U/mL Cu/Zn SOD1, 5 μM blebbistatin and 20 mM Cr. […] The ability of ADP to suppress mH2O2 was assessed with a titration of physiological concentrations (25, 100) and saturating for oxidant generation (500 μM). […] The rate of mH2O2 emission was calculated using a standard curve under the same assay conditions and then normalized to fibre bundle dry weight.

D2.mdx mice [2] = experiment: Hippocampal cytokine mRNA by quantitative PCR; type: in vivo, mouse; settings: 15 mg/kg daily
Procedure: Male D2.mdx mice originated from a colony maintained at York University (Toronto, Canada) and sourced from Jackson Laboratories (Stock Number 013141, Bar Harbor, United States). Mice were treated daily from days 7 to 28 of age with ALY688 at 15 mg/kg b.w. (D2.mdx-ALY688) or saline control (D2.mdx-VEH). This age was chosen given it captures an early stage of disease progression in cardiac and skeletal muscle. Mice were sacrificed 20-24 hr after the last dose. Breeding of wildtype mice was unsuccessful. […]
Total RNA was isolated from hippocampus using the Aurum Total RNA Mini Kit (Bio-Rad; Mississauga, ON, Canada) according to manufacturer's instructions, and reverse transcribed into cDNA by M-MLV reverse transcriptase and oligo (dT) primers (Qiagen). cDNA was then amplified in a CFX384 Touch Real-Time PCR Detection Systems (Bio-Rad) with a SYBR Green master mix and specific primers. Gene expression was normalized to a Rplp0 control and relative differences were determined using the ΔΔCt method (Livak, K. J., & Schmittgen, T. D. (2001). Analysis of relative gene expression data using real-time quantitative PCR and the 2(-Delta Delta C(T)) Method. Methods, 25 (4), 402-408. doi: 10.1006/meth.2001.1262), normalized to D2A expression. […]

[dN]IP[Nva]LY[dS]FA[dS]-NH2 [ALY688]
mitochondrial responsiveness to ADP (pyruvate/malate-supported mH2O2 emission) (D2.mdx mice [1]; diaphragm, HD): completely preserved
reduction of pyruvate/malate-supported mH2O2 emission (D2.mdx mice [1]; diaphragm, HD, across ADP concentrations): 8.7 to 70.7%
succinate-induced mH2O2 emission (D2.mdx mice [1]; diaphragm, absence and presence of creatine, LD and HD): no effect of either drug dose
attenuation of succinate-induced mH2O2 emission (D2.mdx mice [1]; quadriceps, both doses, absence and presence of creatine): 11.3 to 73.6%
attenuation of pyruvate/malate-supported mH2O2 emission (D2.mdx mice [1]; quadriceps, both doses, across ADP concentrations): 45.9 to 62.3%
hippocampal mRNA of IL-6, TNF-α or IL-10 (D2.mdx mice [2]): No significant changes

— US20240382564A1, “Methods and Compositions for Treating Muscular Dystrophy and Memory Impairment” (Allysta Pharmaceuticals, Inc., priority 2023, published 2024)
